These are literature values, as cited in US20120237592A1, “ENDOPLASMIC RETICULUM TARGETING LIPOSOMES” (priority 2008, published 2012).

One data set has as its system HIV-1. The following applies: HIV-1 infected patients, literature.
The subject of a further data set is HBV. The note with it: literature.
The test system of the next data set is HIV. The note with it: literature.
A further data set relates to BVDV. The following applies: literature.

As to `CCCCN1C[C@H](O)[C@@H](O)[C@H](O)[C@H]1CO` [NB-DNJ, N-butyl-1,5-dideoxy-1,5-imino-D-glucitol], the “tolerability at concentrations necessary for antiviral activity” value with HIV-1 was “serious side-effects”. Also, the “secretion of HBV particles” value in the data set on HBV is “suppresses secretion of HBV particles”. The “infectious virus released from HIV-infected cells” value in the data set on HIV is listed as “greatly reduced”. Besides, the “infectivity of BVDV viral progeny” value in the data set on BVDV is reported as “decreased infectivity of viral progeny”.
